The target in one assay is T1, PDK1 (Homo sapiens, UniProt O15530).
T1 sequence (O15530 1-556): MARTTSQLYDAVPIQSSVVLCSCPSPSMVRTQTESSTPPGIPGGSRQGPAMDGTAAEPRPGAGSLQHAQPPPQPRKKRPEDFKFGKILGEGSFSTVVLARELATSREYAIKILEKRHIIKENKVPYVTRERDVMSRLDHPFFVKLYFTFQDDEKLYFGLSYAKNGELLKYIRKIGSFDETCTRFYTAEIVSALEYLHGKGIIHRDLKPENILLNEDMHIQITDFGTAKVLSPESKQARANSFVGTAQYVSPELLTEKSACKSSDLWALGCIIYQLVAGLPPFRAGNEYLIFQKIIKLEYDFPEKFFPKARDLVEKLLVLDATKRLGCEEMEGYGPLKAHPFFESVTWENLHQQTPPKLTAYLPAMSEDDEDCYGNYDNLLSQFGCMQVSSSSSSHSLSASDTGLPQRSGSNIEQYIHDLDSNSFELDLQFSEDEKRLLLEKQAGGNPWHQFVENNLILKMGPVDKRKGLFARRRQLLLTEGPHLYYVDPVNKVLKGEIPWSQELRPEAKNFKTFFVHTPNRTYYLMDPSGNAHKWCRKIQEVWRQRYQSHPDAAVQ
The experiment in a line: LabChip (Caliper) kinase assay, PDK1. It counts as biochemical. As to conditions: read-out: remaining kinase activity (in %) / percentage of inhibition; for inhibition at 0.01 µM: compound at 10 nM; for inhibition at 0.1 µM: compound at 100 nM. As to the method: (§1) The analysis of kinase activity described here was performed using LabChip (Caliper Life Sciences), specifically the Caliper LC3000 and the EZ Reader II instruments.
(§2) The kinase assay used measures the conversion of a fluorescent peptide (substrate) to a phosphorylated product. The reaction mixture, in a microplate well, is introduced by a capillary in a chip where the non-phosphorylated substrate and the phosphorylated product are separated by […]. The intensity of the fluorescent signal over time is related to the reaction progress. The phosphorylated product migrates quicker than the non-phosphorylated substrate and the signals of the two forms of the peptide appear as differentiated peaks. The Caliper determines the peak height and calculates the ratio of product to the peak sum (P/(P+S)). This value is used to compare wells with compounds and wells with controls and thus determine the % of inhibition for the given product.
The followings kinases were used for the enzymatic inhibition studies, between brackets the value of the Michaelis-Menten constant, Km, of the ATP (Adenosine triphosphate) for each kinase, in μM: obtained from Carna Biosciences: MAPKAPK2 (4.6), AurA (3.6), AurB (5), PKCζ (3.8), RSK1 (23.3), PRAK (5), Erk1 (33.4), PKD2 (32.1), CK1d (16.3), CHK1 (33), ABL (61.7), FYN (36), LYNa (17), CHK2 (57.8), MET (79.5), LCK (28.5), SRC (38), GSK3β (7.3), Erk2 (62.1), PKACα (1.7), AKT2 (186.1), INSR (871.8), p38a (396.5), AKT1(48), MSK1 (21.2), PKCβ2 (84.8), ROCK2 (3.3), PIM2 (4.9), AMPK (38.6), KDR (164.8), IRAK4 (196.5), SGK1 (121.8), SYK (33.5); obtained from Invitrogen: CDK2 (57.6), BTK (123), HGK (80); obtained from Upstate: MST2 (36.6), PKGα (16), PAK2 (1.9), IGF1R (320), FGFR1 (171), MARK1 (33), CAMK2δ (22.4), c-TAK1 (66), DYRK1a (18.1), CaMK4 (3.9), FLT3 (350), c-Raf (6.2), P70S6K (95).
The compounds were dissolved in 100% DMSO and were diluted at 25 times the final concentration desired for the assay. In the case of the determination of Cl50, serial dilutions were made to reach eight concentrations and give rise to the inhibition curve. 1 μL of each concentration is transferred, in duplicate to a 384-well microplate. 12 μL of enzymatic buffer is added to each well containing purified kinase (several suppliers as indicated above), 100 mM HEPES, pH 7.5, 1 mM DTT (Calbiochem), 0.002% Brij-35 (Sigma) and also in presence of 10 mM MgCl2 as cofactor, except for INSR and IRAK4 wherein 10 mM MnCl2 is used instead of MgCl2. For the kinases CAMK26 and CAMK4, 1 mM CaCl2 and 6.7 μg/mL of calmodulin are also added. For KDR kinase, 0.05% of the CHAPSO detergent is added. For the c-Raf kinase, 10 mM MnCl2 is added. For PKCβ2 0.02 μg/mL of PS/PMA is added. For PKGα se 10 μM of cGMP (cyclic guanosine monophosphate) is added. The compound and the enzyme are left for 15 minutes preincubation and, then, the following are added to each well: 12 μL of peptide buffer/ATP containing 100 mM HEPES, pH 7.5, 1.5 μM peptide marker with fluorescein (specific for the corresponding kinase), ATP (at concentration KM), and 0.002% Brij-35 to start the reaction. Generally, the reactions are incubated for 1-1.5 h at ambient temperature to obtain an adequate conversion (15-40%) of the peptide to the phosphorylated product. The reactions were ended by the addition of 45 μL of buffer containing 0 mM EDTA. The microplates were read by the LabChip 3000 using a 12-channel LabChip. The P/(P+S) values were obtained as described above and the CI50 curves were generated using XIfit.
For example, the activity of the Dyrk1a kinase is inhibited in 87% by the compound of formula (III) and completely by the compound of formula (XII) when used at a concentration of 10 nM.

A further assay addresses T2, AurB (Homo sapiens, UniProt Q96GD4).
T2 construct: purchased Carna Biosciences
The experiment in a line: LabChip (Caliper) kinase assay, AurB. It counts as biochemical. As to conditions: ATP at Km, read-out: CI50 (the source's name). The method, then: as §1
as §2, with “given product. […]” for “given product.”
The compounds were dissolved in 100% DMSO and were diluted at 25 times the final concentration desired for the assay. […] The microplates were read by the LabChip 3000 using a 12-channel LabChip. […]

T2 sequence (Q96GD4 whole entry): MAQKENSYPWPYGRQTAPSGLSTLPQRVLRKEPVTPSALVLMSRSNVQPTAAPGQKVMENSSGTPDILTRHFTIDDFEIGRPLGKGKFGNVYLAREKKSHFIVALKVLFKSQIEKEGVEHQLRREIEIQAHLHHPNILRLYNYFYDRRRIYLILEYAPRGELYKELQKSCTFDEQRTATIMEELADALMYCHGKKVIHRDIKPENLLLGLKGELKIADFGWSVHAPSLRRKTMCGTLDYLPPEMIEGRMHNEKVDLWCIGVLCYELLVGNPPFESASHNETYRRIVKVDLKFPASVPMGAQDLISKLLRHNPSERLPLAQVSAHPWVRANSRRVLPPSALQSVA
T2 sequence (Q9NQS7 803-918 partner limits assumed): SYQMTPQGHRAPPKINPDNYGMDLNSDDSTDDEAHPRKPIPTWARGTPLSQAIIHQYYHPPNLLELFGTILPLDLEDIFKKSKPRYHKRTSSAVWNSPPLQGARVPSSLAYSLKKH

For the compound `C[C@@H]1O[C@@H](n2c3ccccc3c3c4c(c5c6ccccc6[nH]c5c32)C(=O)NC4=O)[C@H](O)[C@H](O)[C@H]1O` [formula (III), N^13-1′-β-L-rhamnosylarcyriaflavin], at PDK1, the inhibition at 0.01 µM is -6% and the inhibition at 0.1 µM was 46%.
For the compound `C[C@@H]1O[C@@H](n2c3ccccc3c3c4c(c5c6ccccc6[nH]c5c32)C(=O)NC4=O)C[C@H](O)[C@H]1O` [formula (IV), N^13-1′-β-L-olivosylarcyriaflavin], at PDK1, the inhibition at 0.01 µM stood at 7% and the inhibition at 0.1 µM was 71%.
As to `C[C@]12O[C@H](C[C@@H](O)[C@H]1O)n1c3ccccc3c3c4c(c5c6ccccc6n2c5c31)C(=O)NC4=O` [formula (IX), N^12-5′(S)-N^13-1′-(R)-L-digitoxosylarcyriaflavin], on AurB, the IC50 stood at 4.5 nM.
Take `C[C@@H]1O[C@@H](n2c3ccccc3c3c4c(c5c6ccccc6[nH]c5c32)C(=O)NC4=O)C[C@@H](O)[C@H]1O` [formula (V), N^13-1′-β-L-digitoxosylarcyriaflavin]: on PDK1, the inhibition at 0.01 µM amounted to 61% and the inhibition at 0.1 µM amounted to 97%.
For `C[C@H]1O[C@@H](n2c3ccccc3c3c4c(c5c6ccccc6[nH]c5c32)C(=O)NC4=O)C[C@@H](O)[C@@H]1O` [formula (VI), N^13-1′-β-D-olivosylarcyriaflavin] the same measures were 21% and 76%.
As for `C[C@@H]1O[C@@H](n2c3ccccc3c3c4c(c5c6ccccc6[nH]c5c32)CNC4=O)[C@H](O)[C@H](O)[C@H]1O` [formula (XII), N^13-1′-β-L-rhamnosyl-k252c], at PDK1, the inhibition at 0.01 µM is -10% and the inhibition at 0.1 µM stood at 15%.
On to `C[C@@H]1O[C@@H](n2c3ccccc3c3c4c(c5c6ccccc6[nH]c5c32)CNC4=O)C[C@H](O)[C@H]1O` [formula (XIII), N^13-1′-β-L-olivosyl-k252c], for which, on PDK1, the inhibition at 0.01 µM came to 9% and the inhibition at 0.1 µM is 81%.
Regarding `C[C@@H]1O[C@@H](n2c3ccccc3c3c4c(c5c6ccccc6[nH]c5c32)CNC4=O)C[C@@H](O)[C@H]1O` [formula (XIV), N^13-1′-β-L-digitoxosyl-k252c], on PDK1, the inhibition at 0.01 µM stood at 30% and the inhibition at 0.1 µM is 94%.
For the compound `C[C@H]1O[C@@H](n2c3ccccc3c3c4c(c5c6ccccc6[nH]c5c32)CNC4=O)C[C@@H](O)[C@@H]1O` [formula (XV), N^13-1′-β-D-olivosyl-k252c], on PDK1, the inhibition at 0.01 µM was 3% and the inhibition at 0.1 µM came out at 81%.
As for `C[C@]12O[C@H](C[C@H](O)[C@H]1O)n1c3ccccc3c3c4c(c5c6ccccc6n2c5c31)CNC4=O` [formula (XVII), N^12-5′(S)-N^13-1′-(R)-L-olivosyl-k252c], the IC50 at AurB is 6.8 nM.

The record behind these values is patent US8598132B2, “Glycosylated indolocarbazoles, method for obtaining same and uses thereof” (Universidad de Oviedo, priority 2008, dated 2013).
